In patent publication US20220064195A1, “SYNTHETIC I2 IMIDAZOLINE RECEPTOR LIGANDS FOR PREVENTION OR TREATMENT OF HUMAN BRAIN DISORDERS” (Universitat de Barcelona, priority 2018, published 2022):
Several values for one entry are separate records, joined by “and”; a condition that tells them apart may be missing. Identical values can stand only once. Like-named read-outs stand apart in the source and are kept apart here.

Experiments:
[1] = for CNS Prediction: predictive penetration in the CNS from PAMPA-BBB Pe
Procedure: (§1) To evaluate the brain penetration of the different compounds, a parallel artificial membrane permeation assay for blood-brain barrier was used, following the method described by Di et al. (cf. Table 2). The in vitro permeability (Pe) of fourteen commercial drugs through lipid extract of porcine brain membrane together with the test compounds were determined. Commercial drugs and assayed compounds were tested using a mixture of PBS:EtOH (70:30).

in vitro = details: pig, PAMPA
Procedure: as §1

I2-IR = assay: Competition binding against the selective I2-IR radioligand [3H]-2-BFI in membranes from post-mortem human frontal cortex; details: for [^3H]-2-BFI I2 binding affinity (pKi): membranes from post-mortem human frontal cortex, radioligand [3H]-2-BFI

SMILES: CCOP(=O)(OCC)[C@]1(c2ccccc2)N=C[C@H]2C(=O)N(c3cccc4ccccc34)C(=O)[C@H]21 (racemic) [Compound I-56, Diethyl (1RS,3aSR,6aSR)-5-(naphth-1-yl)-4,6-dioxo-1-phenyl-1,3a,4,5,6,6a-hexahydropyrrolo[3,4-c]pyrrole-1-phosphonate]
- CNS Prediction [1]: CNS− (compounds of low BBB permeation (CNS−): Pe (10^−6 cm s^−1)<2,083)
- Papp (in vitro): 1.4 ± 0.06 ×10⁻⁶ cm/s

SMILES: CCOP(=O)(OCC)[C@]1(c2ccccc2)N=C[C@H]2C(=O)N(CCc3ccccc3)C(=O)[C@H]21 (racemic) [Compound I-33, Diethyl (1RS,3aSR,6aSR)-4,6-dioxo-5-phenethyl-1-phenyl-1,3a,4,5,6,6a-hexahydropyrrolo[3,4-c]pyrrole-1-phosphonate]
- CNS Prediction [1]: CNS+ (compounds of high BBB permeation (CNS+): Pe (10^−6 cm s^−1)>5,179)
- Papp (in vitro): 6.2 ± 0.3 ×10⁻⁶ cm/s
- Selectivity I2/α2 (I2-IR): 182
- [^3H]-2-BFI I2 binding affinity (pKi) (I2-IR): 5.85 ± 0.18

SMILES: c1ccc2c(c1)OCC(C1=NCCN1)O2 (stereo not drawn) [Idazoxan, reference compound]
- [^3H]-2-BFI I2 binding affinity (pKi) (I2-IR): 7.27±0.07 and 7.41 ± 0.63

SMILES: CCOP(=O)(OCC)[C@]1(c2ccccc2)N=C[C@H]2C(=O)N(c3ccc(Oc4ccccc4)cc3)C(=O)[C@H]21 (racemic) [Compound I-34, Diethyl (1RS,3aSR,6aSR)-4,6-dioxo-5-(4-phenoxyphenyl)-1-phenyl-1,3a,4,5,6,6a-hexahydropyrrolo[3,4-c]pyrrole-1-phosphonate]
- CNS Prediction [1]: CNS+ (compounds of high BBB permeation (CNS+): Pe (10^−6 cm s^−1)>5,179)
- Papp (in vitro): 6.5 ± 0.02 ×10⁻⁶ cm/s
- [^3H]-2-BFI I2 binding affinity (pKi) (I2-IR): 6.96 ± 0.30

SMILES: CCOP(=O)(OCC)[C@]1(c2ccccc2)N=C[C@H]2C(=O)N(c3cccc(C(F)(F)F)c3)C(=O)[C@H]21 (racemic) [Compound I-52, Diethyl (1RS,3aSR,6aSR)-4,6-dioxo-1-phenyl-5-[3-(trifluoromethyl)phenyl]-1,3a,4,5,6,6a-hexahydropyrrolo[3,4-c]pyrrole-1-phosphonate]
- CNS Prediction [1]: CNS+ (compounds of high BBB permeation (CNS+): Pe (10^−6 cm s^−1)>5,179)
- Papp (in vitro): 6.9 ± 0.2 ×10⁻⁶ cm/s

SMILES: CCOP(=O)(OCC)[C@]1(c2ccccc2)N=C[C@H]2C(=O)N(c3ccc(-c4ccccc4)cc3)C(=O)[C@H]21 (racemic) [Compound I-32, Diethyl (1RS,3aSR,6aSR)-5-(1,1′-biphenyl)-4-yl-4,6-dioxo-1-phenyl-1,3a,4,5,6,6a-hexahydropyrrolo[3,4-c]pyrrole-1-phosphonate]
- CNS Prediction [1]: CNS+ (compounds of high BBB permeation (CNS+): Pe (10^−6 cm s^−1)>5,179)
- Papp (in vitro): 8.2 ± 0.3 ×10⁻⁶ cm/s
- [^3H]-2-BFI I2 binding affinity (pKi) (I2-IR): 7.90 ± 0.46

SMILES: CCOP(=O)(OCC)[C@]1(c2ccccc2)N=C[C@H]2C(=O)N(c3ccc(C)cc3)C(=O)[C@H]21 (racemic) [Compound I-45, Diethyl (1RS,3aSR,6aSR)-4,6-dioxo-1-phenyl-5-(p-tolyl)-1,3a,4,5,6,6a-hexahydropyrrolo[3,4-c]pyrrole-1-phosphonate]
- CNS Prediction [1]: CNS+ (compounds of high BBB permeation (CNS+): Pe (10^−6 cm s^−1)>5,179)
- Papp (in vitro): 8.75 ± 0.5 ×10⁻⁶ cm/s

SMILES: CCOP(=O)(OCC)[C@]1(c2ccccc2)N=C[C@H]2C(=O)N(c3ccc(Cl)c(Cl)c3)C(=O)[C@H]21 (racemic) [Compound I-44, Diethyl (1RS,3aSR,6aSR)-5-(3,4-dichlorophenyl)-4,6-dioxo-1-phenyl-1,3a,4,5,6,6a-hexahydropyrrolo[3,4-c]pyrrole-1-phosphonate]
- CNS Prediction [1]: CNS+ (compounds of high BBB permeation (CNS+): Pe (10^−6 cm s^−1)>5,179)
- Papp (in vitro): 8.9 ± 0.3 ×10⁻⁶ cm/s

SMILES: CCOP(=O)(OCC)[C@@]1(Cc2ccccc2)N=C[C@H]2C(=O)N(C3CCCCC3)C(=O)[C@H]21 (racemic) [Compound I-57, Diethyl (1RS,3aSR,6aSR)-1-benzyl-5-cyclohexyl-4,6-dioxo-1,3a,4,5,6,6a-hexahydropyrrolo[3,4-c]pyrrole-1-phosphonate]
- CNS Prediction [1]: CNS+/− (compounds of uncertain BBB permeation (CNS+/−): 5,179>Pe (10^−6 cm s^−1)>2,083)
- Papp (in vitro): 5.1 ± 0.01 ×10⁻⁶ cm/s

SMILES: CCOP(=O)(OCC)[C@]1(c2ccccc2)N=C[C@H]2C(=O)N(C3CCCCC3)C(=O)[C@H]21 (racemic) [Compound I-07, Diethyl (1RS,3aSR,6aSR)-5-cyclohexyl-4,6-dioxo-1-phenyl-1,3a,4,5,6,6a-hexahydropyrrolo[3,4-c]pyrrole-1-phosphonate]
- CNS Prediction [1]: CNS+ (compounds of high BBB permeation (CNS+): Pe (10^−6 cm s^−1)>5,179)
- Papp (in vitro): 25.9 ± 0.6 ×10⁻⁶ cm/s
- [^3H]-2-BFI I2 binding affinity (pKi) (I2-IR): 9.74 ± 0.29

SMILES: CCOP(=O)(OCC)[C@@]1(Cc2ccccc2)N=C[C@H]2C(=O)N(c3ccccc3)C(=O)[C@H]21 (racemic) [Compound I-46, Diethyl (1RS,3aSR,6aSR)-1-benzyl-4,6-dioxo-5-phenyl-1,3a,4,5,6,6a-hexahydropyrrolo[3,4-c]pyrrole-1-phosphonate]
- CNS Prediction [1]: CNS+ (compounds of high BBB permeation (CNS+): Pe (10^−6 cm s^−1)>5,179)
- Papp (in vitro): 6.9 ± 0.3 ×10⁻⁶ cm/s

SMILES: CCOP(=O)(OCC)[C@]1(c2ccccc2)N=C[C@H]2C(=O)N(c3ccc(F)cc3)C(=O)[C@H]21 (racemic) [Compound I-37, Diethyl (1RS,3aSR,6aSR)-5-(4-fluorophenyl)-4,6-dioxo-1-phenyl-1,3a,4,5,6,6a-hexahydropyrrolo[3,4-c]pyrrole-1-phosphonate]
- CNS Prediction [1]: CNS+/− (compounds of uncertain BBB permeation (CNS+/−): 5,179>Pe (10^−6 cm s^−1)>2,083)
- Papp (in vitro): 3.2 ± 0.2 ×10⁻⁶ cm/s

SMILES: CCOP(=O)(OCC)[C@]1(c2ccccc2)N=C[C@H]2C(=O)N(C(C)(C)C)C(=O)[C@H]21 (racemic) [Compound I-55, Diethyl (1RS,3aSR,6aSR)-5-(tert-butyl)-4,6-dioxo-1-phenyl-1,3a,4,5,6,6a-hexahydropyrrolo[3,4-c]pyrrole-1-phosphonate]
- CNS Prediction [1]: CNS+ (compounds of high BBB permeation (CNS+): Pe (10^−6 cm s^−1)>5,179)
- Papp (in vitro): 6.3 ± 0.3 ×10⁻⁶ cm/s

SMILES: CCOP(=O)(OCC)[C@]1(c2ccccc2)N=C[C@H]2C(=O)N(c3ccc(OC)cc3)C(=O)[C@H]21 (racemic) [Compound I-22, Diethyl (1RS,3aSR,6aSR)-5-(4-methoxyphenyl)-4,6-dioxo-1-phenyl-1,3a,4,5,6,6a-hexahydropyrrolo[3,4-c]pyrrole-1-phosphonate]
- CNS Prediction [1]: CNS+/− (compounds of uncertain BBB permeation (CNS+/−): 5,179>Pe (10^−6 cm s^−1)>2,083)
- Papp (in vitro): 3.9 ± 0.15 ×10⁻⁶ cm/s
- [^3H]-2-BFI I2 binding affinity (pKi) (I2-IR): 6.65 ± 1.27

SMILES: CCOP(=O)(OCC)[C@]1(c2ccccc2)N=C[C@H]2C(=O)N(c3ccc(Cl)cc3)C(=O)[C@H]21 (racemic) [Compound I-49, Diethyl (1RS,3aSR,6aSR)-5-(4-chlorophenyl)-4,6-dioxo-1-phenyl-1,3a,4,5,6,6a-hexahydropyrrolo[3,4-c]pyrrole-1-phosphonate]
- CNS Prediction [1]: CNS+ (compounds of high BBB permeation (CNS+): Pe (10^−6 cm s^−1)>5,179)
- Papp (in vitro): 5.5 ± 0.03 ×10⁻⁶ cm/s

SMILES: CCOP(=O)(OCC)[C@]1(c2ccccc2)N=C[C@H]2C(=O)N(c3ccc(C(F)(F)F)cc3)C(=O)[C@H]21 (racemic) [Compound I-38, Diethyl (1RS,3aSR,6aSR)-4,6-dioxo-1-phenyl-5-[4-(trifluoromethyl)phenyl]-1,3a,4,5,6,6a-hexahydropyrrolo[3,4-c]pyrrole-1-phosphonate]
- CNS Prediction [1]: CNS+ (compounds of high BBB permeation (CNS+): Pe (10^−6 cm s^−1)>5,179)
- Papp (in vitro): 5.6 ± 0.15 ×10⁻⁶ cm/s

SMILES: CCOP(=O)(OCC)[C@]1(c2ccccc2)N=C[C@H]2C(=O)N(CCc3ccc(F)cc3)C(=O)[C@H]21 (racemic) [Compound I-36, Diethyl (1RS,3aSR,6aSR)-5-(4-fluorophenethyl)-4,6-dioxo-1-phenyl-1,3a,4,5,6,6a-hexahydropyrrolo[3,4-c]pyrrole-1-phosphonate]
- CNS Prediction [1]: CNS+ (compounds of high BBB permeation (CNS+): Pe (10^−6 cm s^−1)>5,179)
- Papp (in vitro): 7.2 ± 0.45 ×10⁻⁶ cm/s

SMILES: CCOP(=O)(OCC)[C@]1(c2ccccc2)N=C[C@H]2C(=O)N(c3ccccc3)C(=O)[C@H]21 (racemic) [Compound I-16, Diethyl (1RS,3aSR,6aSR)-4,6-dioxo-1,5-diphenyl-1,3a,4,5,6,6a-hexahydropyrrolo[3,4-c]pyrrole-1-phosphonate]
- CNS Prediction [1]: CNS+ (compounds of high BBB permeation (CNS+): Pe (10^−6 cm s^−1)>5,179)
- Papp (in vitro): 7.8 ± 0.6 ×10⁻⁶ cm/s
- [^3H]-2-BFI I2 binding affinity (pKi) (I2-IR): 10.28 ± 0.37

SMILES: CCCN1C(=O)[C@@H]2[C@@H](C=N[C@@]2(c2ccccc2)P(=O)(OCC)OCC)C1=O (racemic) [Compound I-51, Diethyl (1RS,3aSR,6aSR)-4,6-dioxo-1-phenyl-5-propyl-1,3a,4,5,6,6a-hexahydropyrrolo[3,4-c]pyrrole-1-phosphonate]
- CNS Prediction [1]: CNS+ (compounds of high BBB permeation (CNS+): Pe (10^−6 cm s^−1)>5,179)
- Papp (in vitro): 6.2 ± 0.3 ×10⁻⁶ cm/s

SMILES: CCn1cc(C(=O)O)c(=O)c2cc(F)c(N3CCNCC3)cc21 [norfloxacine, reference compound]
- Permeability (Pe) Experimental value ± SD (n = 3) ([1]; PAMPA-BBB, PBS:EtOH (70:30), three experiments in triplicate): 0.90 ± 0.02 10−6 cm s^−1

SMILES: CCOP(=O)(OCC)[C@]1(c2ccccc2)N=C[C@H]2C(=O)N(CC)C(=O)[C@H]21 (racemic) [Compound I-54, Diethyl (1RS,3aSR,6aSR)-5-ethyl-4,6-dioxo-1-phenyl-1,3a,4,5,6,6a-hexahydropyrrolo[3,4-c]pyrrole-1-phosphonate]
- CNS Prediction [1]: CNS+/− (compounds of uncertain BBB permeation (CNS+/−): 5,179>Pe (10^−6 cm s^−1)>2,083)
- Papp (in vitro): 3.7 ± 0.5 ×10⁻⁶ cm/s

SMILES: CCOP(=O)(OCC)[C@]1(C)N=C[C@H]2C(=O)N(C)C(=O)[C@H]21 (racemic) [Compound I-25, Diethyl (1RS,3aRS,6aRS)-1,5-dimethyl-4,6-dioxo-1,3a,4,5,6,6a-hexahydropyrrolo[3,4-c]pyrrole-1-phosphonate]
- CNS Prediction [1]: CNS+/− (compounds of uncertain BBB permeation (CNS+/−): 5,179>Pe (10^−6 cm s^−1)>2,083)
- Papp (in vitro): 4.6 ± 0.7 ×10⁻⁶ cm/s
- Selectivity I2/α2 (I2-IR; antilogarithm of the difference between pKi for I2-IR and pKi for α2-AR): 19
- [^3H]-2-BFI I2 binding affinity (pKi) (I2-IR): 8.57 ± 0.39
